The test system of series [1] is BV-2 microglial cells (Mus musculus). The series is described as follows: Antineuroinflammatory activity in mouse BV2 cells assessed as inhibition of LPS-induced nitric oxide production at 50 uM preincubated for 10 mins followed by LPS stimulation for 24 hrs by Griess assay.
The nature of series [2]: Antineuroinflammatory activity in […] of LPS-induced nitric oxide production preincubated for 10 mins followed by LPS stimulation for 24 hrs by Griess assay. It counts as functional, cell-based. The settings on record: BV-2. A general note: Nitrite, measured by Griess reagent, commonly stands in for NO production.
Series [3] is described as follows: Cytotoxicity against […] cells assessed as decrease in cell viability up to 100 uM preincubated for 10 mins followed by LPS stimulation for 24 hrs by MTT assay. It counts as toxicity, cell-based. Conditions: bv-2, 24 h. Background: Formazan colour is commonly taken as a measure of viable cells.

Experimental findings from ChEMBL document CHEMBL3853283, “Nitric Oxide Inhibitory Meroterpenoids from the Fungus Penicillium purpurogenum MHZ 111” (J Nat Prod, 2016) are described below.

As a reminder, the inhibition is the percentage by which the read-out fell short of the control. `CC1Cc2c3c(cc(O)c2C(=O)O1)O[C@@]1(C)[C@@H](O)C[C@H]2C(C)(C)C(=O)C=C[C@]2(C)[C@@H]1C3` (stereo partly drawn): the inhibition at 50 µM in series [1] was below 50%.
Still for that read-out and setting: the figure for `CC1=C2CC(=O)OC(C)(C)C2=CC[C@@]2(C)[C@H]1C[C@@]1(C)C(=O)[C@@]3(C)O[C@]14COC(=O)[C@@]42C3=O` is below 50%; for `COC(=O)[C@]12C(=O)[C@@](C)(O)C(=O)[C@](C)(C[C@H]3C(C)=C4CC(=O)OC(C)(C)C4=CC[C@@]31C)[C@]21CO1` it is below 50%; for `C[C@H]1O[C@@H]2OC(=O)[C@]3(C)CC4=C(CO)C5=C(CC(=O)[C@]4(C)[C@H](C1=O)[C@H]23)C(C)(C)OC(=O)C5` it is below 50%.
The same measure, in the same setting: the figure for `CC(=O)O[C@@H]1c2c3c(cc(O)c2C(=O)OC1C)O[C@@]1(C)[C@@H](O)C[C@H]2C(C)(C)C(=O)C=C[C@]2(C)[C@@H]1C3` (stereo partly drawn) is below 50%.
In general, IC50 refers to the concentration that inhibits the measured activity by half. As to `C[C@@H]1O[C@@H]2OC(=O)[C@]3(C)C[C@@H]4[C@](C)(C(=O)C=C5C(=CC(=O)OC5(C)C)[C@@]45CO5)[C@H](C1=O)[C@H]23` [BERKELEYACETAL C], the IC50 in series [2] is 0.8 µM. In series [3], the Activity result is recorded as “Non-Toxic”.
Take `COc1ccc2c(c1)c(CC(=O)O)c(C)n2C(=O)c1ccc(Cl)cc1` [INDOMETHACIN]: the IC50 in series [2] came out at 34.5 µM.
